According to ChEMBL document CHEMBL1687703, “Modification at the Lipophilic Domain of RXR Agonists Differentially Influences Activation of RXR Heterodimers” (ACS Med Chem Lett, 2010):
Activity calls are given as the source filed them. The rule behind the calls is not given here.

Experiments:
[1] = target: T1, Retinoic acid receptor RXR-alpha (Homo sapiens, UniProt P19793); assay: Agonist activity at RXRalpha transfected in […] COS1 cells after 18 hrs by luciferase reporter gene transactivation assay; assay type: functional, cell-based, COS-1
T1 sequence (P19793 whole entry): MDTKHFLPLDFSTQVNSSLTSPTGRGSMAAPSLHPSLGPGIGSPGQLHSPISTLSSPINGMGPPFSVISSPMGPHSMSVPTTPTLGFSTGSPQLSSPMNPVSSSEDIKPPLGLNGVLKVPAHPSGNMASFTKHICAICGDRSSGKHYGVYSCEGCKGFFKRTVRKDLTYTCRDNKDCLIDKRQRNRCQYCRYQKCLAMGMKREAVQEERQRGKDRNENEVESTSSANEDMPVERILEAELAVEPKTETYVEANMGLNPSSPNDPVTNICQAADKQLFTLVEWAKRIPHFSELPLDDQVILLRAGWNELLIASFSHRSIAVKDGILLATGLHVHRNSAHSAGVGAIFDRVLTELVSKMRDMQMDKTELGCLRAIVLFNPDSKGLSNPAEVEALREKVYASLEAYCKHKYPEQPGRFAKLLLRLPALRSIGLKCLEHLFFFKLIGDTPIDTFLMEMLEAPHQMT

[2] = target: Retinoic acid receptor RXR-alpha/oxysterols receptor LXR-alpha (Homo sapiens) (UniProt P19793+Q13133); assay: Agonist activity at LXRalpha/RXRalpha transfected in […] COS1 cells at 10^-7 to 10^-6 M after 18 hrs by luciferase reporter gene transactivation assay; assay type: functional, cell-based; details: COS-1
[3] = target: T2, Oxysterols receptor LXR-alpha (Homo sapiens) (UniProt Q13133); assay: Agonist activity at LXRalpha transfected in […] COS1 cells after 18 hrs by luciferase reporter gene transactivation assay; assay type: functional, cell-based; details: COS-1
T2 sequence (whole entry): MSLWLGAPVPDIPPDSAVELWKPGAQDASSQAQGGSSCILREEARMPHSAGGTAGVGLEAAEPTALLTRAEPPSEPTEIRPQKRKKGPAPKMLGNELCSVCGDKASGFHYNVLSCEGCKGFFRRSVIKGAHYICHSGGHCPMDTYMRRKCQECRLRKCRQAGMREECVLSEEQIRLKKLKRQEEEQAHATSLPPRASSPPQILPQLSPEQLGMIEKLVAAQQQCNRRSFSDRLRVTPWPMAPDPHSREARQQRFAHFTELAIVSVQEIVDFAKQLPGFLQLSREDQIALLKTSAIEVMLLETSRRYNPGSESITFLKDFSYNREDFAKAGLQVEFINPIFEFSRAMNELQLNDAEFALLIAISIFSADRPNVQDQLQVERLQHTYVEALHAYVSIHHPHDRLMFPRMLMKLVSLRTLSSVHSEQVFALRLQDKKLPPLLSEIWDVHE

CCN(c1ccc(C(C)C)c(OCC(F)(F)F)c1)c1ccc(C(=O)O)cn1
EC50 [1]: 160 nM

CCN(c1ccc(C(C)C)c(OCc2ccccc2)c1)c1ccc(C(=O)O)cn1
Activity [2]: Active | EC50 [1]: 160 nM

CCCCCOc1cc(N(CC)c2ccc(C(=O)O)cn2)ccc1C(C)C
Activity [2]: Active | EC50 [1]: 160 nM

C=C(C)COc1cc(N(CC)c2ccc(C(=O)O)cn2)ccc1C(C)C
EC50 [1]: 110 nM

CCN(c1ccc(C(C)C)c(OCC=C(C)C)c1)c1ccc(C(=O)O)cn1
EC50 [1]: 160 nM

CCN(c1ccc(C(C)C)c(OCC2CC2)c1)c1ccc(C(=O)O)cn1
Activity [2]: Active | EC50 [1]: 290 nM

CCCCOc1cc(N(CC)c2ccc(C(=O)O)cn2)ccc1C(C)C
EC50 [1]: 180 nM

CCN(c1ccc(C(C)C)c(OCCc2ccccc2)c1)c1ccc(C(=O)O)cn1
EC50 [1]: 330 nM

CCN(c1ccc(C(C)C)c(OCCCc2ccccc2)c1)c1ccc(C(=O)O)cn1
EC50 [1]: 820 nM

CCCCCCOc1cc(N(CC)c2ccc(C(=O)O)cn2)ccc1C(C)C
EC50 [1]: 280 nM

CCN(c1ccc(C(C)C)c(OC(C)C)c1)c1ccc(C(=O)O)cn1
EC50 [1]: 66 nM

CCN(c1ccc(C(C)C)c(OCC(C)C)c1)c1ccc(C(=O)O)cn1
Activity [3]: Active

CCN(c1ccc2c(c1)C(C)(C)CCC2(C)C)c1ccc(C(=O)O)cn1
Activity [3]: Active

CCCOc1cc(N(CC)c2ccc(C(=O)O)cn2)ccc1C(C)C
EC50 [1]: 450 nM
